Consider 1 molecule from publication PMC7139549, “TLD1433 Photosensitizer Inhibits Conjunctival Melanoma Cells in Zebrafish Ectopic and Orthotopic Tumour Models” (Cancers, 2020).

Each structure is given as a SMILES string. Like-named read-outs stand apart in the source and are kept apart here.

For orientation: EC50 means the concentration at which the effect is half-maximal.

For assay [1], the system named is CRMM1 engrafted cells in zebrafish orthotopic model. Put plainly: In situ TUNEL assay, CRMM1 orthotopic zebrafish model. The class given is in vivo, Zebrafish (Danio rerio). The conditions noted are these: RO 2.3 mM. On the procedure:
In situ TUNEL assay on fixed embryos was used to detect TLD1433 induced apoptosis in zebrafish CRMM1 and CRMM2 orthotopic tumour models at 4 dpi after light activation of 2.3 mM TLD1433, administrated by retro orbital injection. The DNA strand breaks in apoptotic tumour cells were stained with fluorescein and visualized as a green signal.
Figure 10 TUNEL assay of in CRMM1 and CRMM2 orthotopic model after RO of TLD1433. Red fluorescent CRMM1 (A) and CRMM2 (B) cells were injected at 2dpf behind the ZF eye and divided into four groups for drug treatment. RO administration of vehicle control and TLD1433 was performed as described in Figure 9C,E. After dark or light exposure (21 mW/cm^2, 114 J.cm^−2, 520 nm) embryos were fixed and TUNEL staining was performed. Representative images of embryos are shown in this figure. (A,B) In TLD1433 light groups nuclear DNA fragmentation by nucleases is detected by co-localization of green (DNA fragments) and red signal of engrafted CM cells, depicted as yellow signal and marked by white arrows. In control dark, control light, TLD1433 dark, there are no positive green apoptotic tumour cells observed. […] Experiment was performed 3 times with a group size of 10 embryos.
The zebrafish larvae were fixed overnight with 4% PFA at 4 °C. Embryos were washed in PBST for 5 min and dehydrated by a graded methanol series until reaching 100% methanol. […]

The subject of assay [2] is CRMM1 conjunctival melanoma cell line. Nature of the assay: SRB cell viability assay, CRMM1. The class given is cell-based, Human. On the procedure: TLD1433 is known to generate reactive oxygen species (ROS) with high quantum efficacy in many cancer cell lines. However, there is no report of the in vitro toxicity of this compound in eye melanoma (UM) cell lines. We determined the cell viability of three conjunctival melanoma cell lines (CRMM1, CRMM2 and CM2005.1), and three uveal melanoma cell lines (OMM1, OMM2.5, MEL270) in the presence of TLD1433, both in the dark or under green light irradiation (21 mW/cm^2, 19 J/cm^2, 520 nm, 15 min), and compared this viability to epidermoid carcinoma A431 and cutaneous melanoma A375 cell lines under the same conditions. The protocol used was based on previous work from the Bonnet group, and differed slightly from recommendations from McFarland et al.. […] The effective concentration (EC50) values, i.e., the concentration required to reduce cell viability by 50% compared to untreated wells, were assessed by fitting the dose-response curves with a Hill equation. The phototoxicity index (PI), defined as the ratio of the dark EC50 to the light EC50, was also calculated and represents the amplification of TLD1433 activity with a light trigger. […]
(§1) Figure 2 Cell viability after TLD1433 treatment of eight tumour cell lines (CRMM1, CRMM2, CM2005.1, OMM1, OMM2.5, MEL270, A431, A375). […] The absorbance of Sulforhodamine B in solution was measured at 520 nm. […]
At day 0, cells were detached using 1mL of trypsin, resuspended in 4 mL of media and transferred to a 15 mL corning falcon tube. Cells were counted using trypan blue and BioRad® TC20™ automated cell counter (Figure 11). Dilutions of 6000 (CRMM1), 6000 (CRMM2), 8000 (CM2005.1), 6000 (OMM1), 6000 (OMM2.5), 6000 (MEL270) 8000 (A431), and 4000 (A375) cells/well were calculated from each cell suspension at a final volume of 6 mL using the following formula: Vc=(Vt×10C)/Lc where Vt = total volume of solution, C = number of cells per well/per 100 μL and Lc = live cells count (cells/mL). […] Next day, the dye was dissolved using Tri-base (0.25%) and absorbance of SRB at 510 nm was recorded from each well using a Tecan plate reader. […]

In assay [3] the test system is A375 cutaneous melanoma cell line. Put plainly: SRB cell viability assay, A375. The class given is cell-based, Human. As for the experimental part: TLD1433 is known to generate reactive oxygen species (ROS) with high quantum efficacy in many cancer cell lines. However, there is no report of the in vitro toxicity of this compound in eye melanoma (UM) cell lines. We determined the cell viability of three conjunctival melanoma cell lines (CRMM1, CRMM2 and CM2005.1), and three uveal melanoma cell lines (OMM1, OMM2.5, MEL270) in the presence of TLD1433, both in the dark or under green light irradiation (21 mW/cm^2, 19 J/cm^2, 520 nm, 15 min), and compared this viability to epidermoid carcinoma A431 and cutaneous melanoma A375 cell lines under the same conditions. […] The phototoxicity index (PI), defined as the ratio of the dark EC50 to the light EC50, was also calculated and represents the amplification of TLD1433 activity with a light trigger. […]
as §1
At day 0, cells were detached using 1mL of trypsin, resuspended in 4 mL of media and transferred to a 15 mL corning falcon tube. Cells were counted using trypan blue and BioRad® TC20™ automated cell counter (Figure 11). […] Next day, the dye was dissolved using Tri-base (0.25%) and absorbance of SRB at 510 nm was recorded from each well using a Tecan plate reader. […]

With `Cc1ccnc(-c2cc(C)ccn2)c1.Cc1ccnc(-c2cc(C)ccn2)c1.[Cl-].[Cl-].[Ru+2].c1csc(-c2ccc(-c3ccc(-c4nc5c6cccnc6c6ncccc6c5[nH]4)s3)s2)c1` [TLD1433], the “TUNEL apoptosis of engrafted cells (in words)” value was “no positive green signal detected” in assay [1] (dark, 4 dpi); “induced CRMM1 and CRMM2 cell apoptosis” in assay [1] (light 114 J.cm^−2, 4 dpi). Besides, the 50% effective concentration (EC50) in assay [2] (CRMM1, dark, 24 h treatment, SRB, read-out: EC50, dark) is 840 nM; in assay [2] (CRMM1, green light 520 nm, 15 min, 21 mW/cm^2, 19 J.cm^−2, DLI 24 h, read-out: EC50,light) it was 5.9 nM; in assay [3] (A375, dark, 24 h treatment, SRB, read-out: EC50, dark), above 5000 nM; in assay [3] (A375, green light 520 nm, 15 min, 21 mW/cm^2, 19 J.cm^−2, DLI 24 h, read-out: EC50,light), 50 nM. In addition, in assay [2] (CRMM1, ratio of dark and light EC50, 19 J.cm^−2 green light), the “PI (photo index)” value came out at 140.
